Experimental findings from PubChem BioAssay AID1259407 (Chemical Carcinogenesis Research Information System (CCRIS), 2018) are described below.

Structures are written as SMILES. Calls of active or inactive are those of the source. How the calls were made is not given here.

In this data set the test system is CCRIS mutagenicity, Ames/micronucleus/aberration tests. The data set is described as follows: CCRIS mutagenicity studies.
Where [1] appears, read: Test System: AMES SALMONELLA TYPHIMURIUM, Strain/Indicator: TA100, Metabolic Activation: NONE, Method: PREINCUBATION
Setting [2] is: Test System: AMES SALMONELLA TYPHIMURIUM, Strain/Indicator: TA1535, Metabolic Activation: NONE, Method: PREINCUBATION
[3] abbreviates: Test System: AMES SALMONELLA TYPHIMURIUM, Strain/Indicator: TA98, Metabolic Activation: NONE, Method: PREINCUBATION
The mark [4] stands for this setting: Test System: AMES SALMONELLA TYPHIMURIUM, Strain/Indicator: TA1538, Metabolic Activation: RAT, LIVER, S-9, AROCLOR 1254, Method: STANDARD PLATE.

With `CCCCN(N=O)C(N)=O`, the mutagenic call was “active; positive” under setting [1]; “active; positive” (Test System: AMES SALMONELLA TYPHIMURIUM, Strain/Indicator: TA100, Metabolic Activation: RAT, LIVER, S-9, KC500 OR PHENOBARBITAL, Method: LIQUID SUSPENSION); “active; positive” under setting [2]; “active; positive” (Test System: AMES SALMONELLA TYPHIMURIUM, Strain/Indicator: TA1535, Metabolic Activation: NONE, Method: STANDARD PLATE); “active; positive” (Test System: CHINESE HAMSTER V-79, Strain/Indicator: V-79/6-THIOGUANINE, Metabolic Activation: NONE, Method: FLASK ASSAY); “active; positive” (Test System: CHO/HGPRT, Strain/Indicator: CHO-K1-BH4, Metabolic Activation: NONE, Method: STANDARD PLATE). The mutagenic call runs as follows: (Test System: E. COLI B, Strain/Indicator: H/R30R, Metabolic Activation: NONE) “active; positive”; (Test System: E. COLI B, Strain/Indicator: HS30R, Metabolic Activation: NONE) “active; positive”; (Test System: E. COLI, Strain/Indicator: WP2, Metabolic Activation: NONE, Method: STANDARD PLATE) “active; positive”; (Test System: E. COLI, Strain/Indicator: WP2 UVRA, Metabolic Activation: NONE, Method: PREINCUBATION) “active; positive”; (Test System: E. COLI, Strain/Indicator: WP2 UVRA, Metabolic Activation: NONE, Method: STANDARD PLATE) “active; positive”; (Test System: E. COLI, Strain/Indicator: WP2 UVRA, Metabolic Activation: RAT, LIVER, S-9, PHENOBARBITAL AND 5,6-BENZOFLAVONE, Method: PREINCUBATION) “active; positive”.
Take `NNc1nncc2ccncc12`: the mutagenic call under setting [3] is “active; positive”; the mutagenic call (Test System: AMES SALMONELLA TYPHIMURIUM, Strain/Indicator: TA98, Metabolic Activation: RAT, LIVER, S-9, PCB, Method: PREINCUBATION) was “active; positive”; the mutagenic call under setting [1] is “active; positive”; the mutagenic call (Test System: AMES SALMONELLA TYPHIMURIUM, Strain/Indicator: TA100, Metabolic Activation: RAT, LIVER, S-9, PCB, Method: PREINCUBATION) was “active; positive”.
On to `CC(C)=C/C(C)=N/Nc1nncc2ccccc12`, for which the mutagenic call is “active; positive” (Test System: AMES SALMONELLA TYPHIMURIUM, Strain/Indicator: TA100, Metabolic Activation: NONE, Method: STANDARD PLATE); “active; positive” (Test System: AMES SALMONELLA TYPHIMURIUM, Strain/Indicator: TA100, Metabolic Activation: RAT, LIVER, S-9, PHENOBARBITAL, Method: STANDARD PLATE); “inactive; negative” (Test System: UDS RAT HEPATOCYTES, Strain/Indicator: THY INCORP, Metabolic Activation: NONE, Method: AUTORADIOGRAPHY).
On to `CC1(C)Cc2ncccc2-c2nc(N)sc21`, for which the mutagenic call under setting [4] is “active; positive”.
On to `C=CC(C)=O`, for which the mutagenic call is, setting by setting: (Test System: AMES SALMONELLA TYPHIMURIUM, Strain/Indicator: TA98, Metabolic Activation: HAMSTER, LIVER, S-9, AROCLOR 1254 (30%), Method: PREINCUBATION) “inactive; negative”; under setting [3], “inactive; negative”; (Test System: AMES SALMONELLA TYPHIMURIUM, Strain/Indicator: TA98, Metabolic Activation: RAT, LIVER, S-9, AROCLOR 1254 (30%), Method: PREINCUBATION) “inactive; negative”; (Test System: AMES SALMONELLA TYPHIMURIUM, Strain/Indicator: TA100, Metabolic Activation: HAMSTER, LIVER, S-9, AROCLOR 1254 (30%), Method: PREINCUBATION) “active; positive”; (Test System: AMES SALMONELLA TYPHIMURIUM, Strain/Indicator: TA100, Metabolic Activation: RAT, LIVER, S-9, AROCLOR 1254 (30%), Method: PREINCUBATION) “inactive; negative”; (Test System: AMES SALMONELLA TYPHIMURIUM, Strain/Indicator: TA100, Metabolic Activation: RAT, LIVER, S-9, Method: PREINCUBATION) “active; positive”. The mutagenic call by setting is: (Test System: AMES SALMONELLA TYPHIMURIUM, Strain/Indicator: TA102, Metabolic Activation: S-9, Method: STANDARD PLATE) “inactive; negative”; (Test System: AMES SALMONELLA TYPHIMURIUM, Strain/Indicator: TA2638, Metabolic Activation: S-9, Method: STANDARD PLATE) “active; positive”; (Test System: E. COLI, Strain/Indicator: WP2 (PKM101), Metabolic Activation: S-9, Method: STANDARD PLATE) “active; positive”; (Test System: E. COLI, Strain/Indicator: WP2 UVRA (PKM101), Metabolic Activation: S-9, Method: STANDARD PLATE) “active; positive”.
For `CCOc1ccc(N=Nc2ccc(-c3ccc(N=Nc4c(O)ccc5cc(S(=O)(=O)O)cc(S(=O)(=O)O)c45)c(C)c3)cc2C)cc1`, the mutagenic call reads like this: (Test System: AMES SALMONELLA TYPHIMURIUM, Strain/Indicator: TA98, Metabolic Activation: HAMSTER, LIVER, S-9, AROCLOR 1254 (10%), Method: PREINCUBATION) “inactive; negative”; under setting [3], “inactive; negative”; (Test System: AMES SALMONELLA TYPHIMURIUM, Strain/Indicator: TA98, Metabolic Activation: RAT, LIVER, S-9, AROCLOR 1254 (10%), Method: PREINCUBATION) “inactive; negative”; (Test System: AMES SALMONELLA TYPHIMURIUM, Strain/Indicator: TA100, Metabolic Activation: HAMSTER, LIVER, S-9, AROCLOR 1254 (10%), Method: PREINCUBATION) “inactive; negative”; under setting [1], “inactive; negative”; (Test System: AMES SALMONELLA TYPHIMURIUM, Strain/Indicator: TA100, Metabolic Activation: RAT, LIVER, S-9, AROCLOR 1254 (10%), Method: PREINCUBATION) “inactive; negative”. The mutagenic call (Test System: AMES SALMONELLA TYPHIMURIUM, Strain/Indicator: TA1535, Metabolic Activation: HAMSTER, LIVER, S-9, AROCLOR 1254 (10%), Method: PREINCUBATION) is “inactive; negative”; the mutagenic call under setting [2] is “inactive; negative”; the mutagenic call (Test System: AMES SALMONELLA TYPHIMURIUM, Strain/Indicator: TA1535, Metabolic Activation: RAT, LIVER, S-9, AROCLOR 1254 (10%), Method: PREINCUBATION) is “inactive; negative”; the mutagenic call (Test System: AMES SALMONELLA TYPHIMURIUM, Strain/Indicator: TA1537, Metabolic Activation: HAMSTER, LIVER, S-9, AROCLOR 1254 (10%), Method: PREINCUBATION) was “inactive; negative”; the mutagenic call (Test System: AMES SALMONELLA TYPHIMURIUM, Strain/Indicator: TA1537, Metabolic Activation: NONE, Method: PREINCUBATION) was “inactive; negative”; the mutagenic call (Test System: AMES SALMONELLA TYPHIMURIUM, Strain/Indicator: TA1537, Metabolic Activation: RAT, LIVER, S-9, AROCLOR 1254 (10%), Method: PREINCUBATION) was “inactive; negative”. Besides, the mutagenic call under setting [4] was “active; positive”.
